In patent US5807860A, “Urea derivatives” (Mitsubishi Chemical Corporation, priority 1995, dated 1998):
Structures can show the parent of a compound that is named as a salt.

Experiments:
ACAT of HepG2 cells = biological target: T1, ACAT of HepG2 cells (Homo sapiens, UniProt P35610); assay: Inhibitory activity against ACAT of HepG2 cells derived from human liver cancer cells; type: cell-based; details: radio-labelled oleic acid/BSA complex, cholesterol oleate produced
T1 construct: endogenous in cells; host or cells: HepG2
T1 sequence (P35610 1-550): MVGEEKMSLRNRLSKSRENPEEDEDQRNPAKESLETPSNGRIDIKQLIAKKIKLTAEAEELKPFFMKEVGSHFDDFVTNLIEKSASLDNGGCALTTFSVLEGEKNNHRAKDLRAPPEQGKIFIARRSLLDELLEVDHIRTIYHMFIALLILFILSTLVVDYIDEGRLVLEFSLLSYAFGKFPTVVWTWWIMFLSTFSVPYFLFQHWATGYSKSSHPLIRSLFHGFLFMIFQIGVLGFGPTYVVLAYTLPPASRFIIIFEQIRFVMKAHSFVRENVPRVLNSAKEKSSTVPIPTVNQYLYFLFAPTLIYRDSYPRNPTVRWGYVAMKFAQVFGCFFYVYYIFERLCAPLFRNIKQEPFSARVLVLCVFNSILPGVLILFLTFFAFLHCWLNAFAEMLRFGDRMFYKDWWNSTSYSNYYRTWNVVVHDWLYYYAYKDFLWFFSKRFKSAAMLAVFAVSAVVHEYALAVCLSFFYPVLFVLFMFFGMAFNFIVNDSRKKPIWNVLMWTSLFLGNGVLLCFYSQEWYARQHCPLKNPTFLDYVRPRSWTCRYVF
Procedure: Inhibitory Activity against ACAT of HepG2 cells Derived from Human Liver Cancer Cells Inhibitory activities of the compounds of the present invention against ACAT were measured by the method described below. HepG2 cells derived from human liver cancer cells were used for the measurement of the ACAT activity. A complex of radio-labelled oleic acid and bovine serum albumin was added to a culture of the cells, and the activity was measured by observing the amount of radio-labelled cholesterol oleate produced from the radio-labelled oleic acid in the cells.

[1] = biological target: T2, ACAT in foamed macrophages (Mus musculus, UniProt Q61263); assay: Inhibitory activity against ACAT derived from foamed macrophages; type: cell-based, mouse (ddY female mice); details: foamed macrophages from ddY female mice; acetylated LDL, 24 hours; cholesterol oleate produced; read-out: Inhibitory activity against ACAT, Macrophage (IC50)
T2 construct: endogenous in cells; host or cells: peritoneal macrophages of ddY female mice, foamed with acetylated LDL
T2 sequence (Q61263 1-540): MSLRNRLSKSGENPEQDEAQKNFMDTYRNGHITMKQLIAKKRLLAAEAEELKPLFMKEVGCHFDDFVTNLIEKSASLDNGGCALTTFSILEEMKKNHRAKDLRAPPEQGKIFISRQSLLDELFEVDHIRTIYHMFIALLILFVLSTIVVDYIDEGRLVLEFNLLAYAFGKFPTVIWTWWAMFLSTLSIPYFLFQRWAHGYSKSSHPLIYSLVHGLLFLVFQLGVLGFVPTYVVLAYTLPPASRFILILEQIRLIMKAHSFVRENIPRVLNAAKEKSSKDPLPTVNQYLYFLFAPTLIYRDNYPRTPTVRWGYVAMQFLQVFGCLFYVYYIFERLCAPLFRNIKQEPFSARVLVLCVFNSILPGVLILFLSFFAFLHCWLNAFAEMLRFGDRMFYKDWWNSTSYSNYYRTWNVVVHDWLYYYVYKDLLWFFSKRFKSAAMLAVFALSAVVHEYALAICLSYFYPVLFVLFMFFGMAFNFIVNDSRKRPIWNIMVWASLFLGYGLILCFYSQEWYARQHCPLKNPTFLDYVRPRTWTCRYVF
Procedure: Inhibitory Activity against ACAT Derived from Foamed Macrophages
Inhibitory activity of the compounds of the present invention against ACAT in foamed macrophages was measured by the methods set out below. Acetylated low density lipoprotein was added to macrophages taken from abdominal cavities of ddY female mice and the cells were incubated for 24 hours to obtain foaming macrophages. These cells accumulated a large amount of cholesterol (ester) inside the cells, and are used as a model of arteriosclerosis lesion. ACAT activity of the cells was determined by adding a complex of radio-labelled oleic acid and bovine serum albumin to the cell culture, and observing the amount of radio-labelled cholesterol oleate that was produced from the radio-labelled oleic acid in the cells. The inhibitory activities of the compounds of the present invention against ACAT were measured as follows: percent reduction rates of enzymatic activity by the addition of given concentrations of test compounds was observed on the basis of the amount of the produced cholesterol oleate in the control group without the addition of a test compound, and by using the results, IC50, i.e., concentrations of tested compounds required to inhibit 50% of the enzyme activity, was calculated.

SMILES | IC50 (ACAT of HepG2 cells) | IC50 [1]
CCCCCN(Cc1ccccc1-n1ccnc1)C(=O)Nc1c(C)cccc1OCCCN1CCN(c2ccccc2)CC1 [Example 15] | 516 nM | –
CCCCCN(Cc1ccccc1OCc1ccccn1)C(=O)Nc1c(C)cccc1OCCCN1CCN(c2ccccc2)CC1 [Example 32] | 600 nM | –
CCCN(Cc1cc(-n2ccnc2)cc2c1OCO2)C(=O)Nc1c(C)cccc1OCCCN1CCN(c2ccccc2)CC1 [Example 23] | 634 nM | –
CCCCCN(Cc1ccc(-n2ccnc2)cc1)C(=O)Nc1c(C)cccc1OCCCN1CCN(c2ccccn2)CC1 [Example 12] | 595 nM | –
CCCCCCCN(Cc1cccc(OC)c1OCc1ccccc1)C(=O)Nc1c(OCCCN2CCN(c3ccccc3)CC2)ccc2c1CCCC2 [Example 8] | 414 nM | –
CCCCCN(Cc1ccc(-n2ccnc2)cc1)C(=O)Nc1c(OCCCN2CCN(c3ccccc3)CC2)ccc2c1CCCC2 [Example 10] | 389 nM | –
CCCCCN(Cc1ccc(OCc2ccccn2)cc1)C(=O)Nc1c(C)cccc1OCCCN1CCN(c2ccccc2)CC1 [Example 34] | 89 nM | 119 nM
CCCCCN(Cc1cc(-n2ccnc2)ccc1OC)C(=O)Nc1c(C)cccc1OCCCN1CCN(c2ccccn2)CC1 [Example 17] | 363 nM | –
COc1cccc(CN(CCCc2ccccc2)C(=O)Nc2c(OCCCN3CCN(c4ccccc4)CC3)ccc3c2CCCC3)c1OCc1ccccc1 [Example 9] | 366 nM | –
CCCCCN(Cc1ccc(-n2ccnc2)cc1)C(=O)Nc1c(C)cccc1OCCCN1CCN(c2ccccc2)CC1 [Example 11] | 189 nM | –
CCCCCN(Cc1cc(-n2ccnc2)ccc1OCc1ccccn1)C(=O)Nc1c(C)cccc1OCCCN1CCN(c2ccccc2)CC1 [Example 30] | 234 nM | –
CCCCCN(Cc1cc(-n2ccnc2)cc(OC)c1OC)C(=O)Nc1c(C)cccc1OCCCN1CCN(c2ccccc2)CC1 [Example 20] | 851 nM | –
CCCCCN(Cc1cc(-n2ccnc2)ccc1OC)C(=O)Nc1c(C)cccc1OCCCN1CCN(c2ccccc2)CC1 [Example 2, N-{5-(1-imidazolyl)-2-methoxyphenyl}methyl-N-(1-pentyl)-N'-[2-{3-(4-phenyl-1-piperazinyl)propoxy}-6-methyphenyl]urea trihydrochloride] | 101 nM | 131 nM
CCCCCN(Cc1cc(-n2ccnc2)ccc1OC)C(=O)Nc1c(C)cccc1OCCCN1CCN(c2ccccc2)CC1 [Example 1, N-{5-(1-imidazolyl)-2-methoxyphenyl}methyl-N-(1-pentyl)-N'-[2-{3-(4-phenyl-1-piperazinyl)propoxy}-6-methylphenyl]urea] | 128 nM | –
CCCCCN(Cc1cccc(OC)c1OCc1ccccn1)C(=O)Nc1c(OCCCN2CCN(c3ccccc3)CC2)ccc2c1CCCC2 [Example 28] | 732 nM | –
CCCCCN(Cc1cccc(OC)c1OCc1ccccn1)C(=O)Nc1c(C)cccc1OCCCN1CCN(c2ccccc2)CC1 [Example 26] | 743 nM | –
CCCCCN(Cc1cc(-n2ccnc2)ccc1OC)C(=O)Nc1c(C)cccc1OCCN1CCN(c2ccccc2)CC1 [Example 18] | 164 nM | 440 nM
CCCCCN(Cc1cc(-n2ccnc2)cc2c1OCO2)C(=O)Nc1c(C)cccc1OCCCN1CCN(c2ccccc2)CC1 [Example 24] | 449 nM | –
COc1ccc(-n2ccnc2)cc1CN(Cc1ccccc1)C(=O)Nc1c(OCCCN2CCN(c3ccccc3)CC2)ccc2c1CCCC2 [Example 13] | 67 nM | –
CCCN(Cc1cc(-n2ccnc2)ccc1OC)C(=O)Nc1c(C)cccc1OCCCN1CCN(c2ccccc2)CC1 [Example 19] | 156 nM | –
COc1ccc(-n2ccnc2)cc1CN(Cc1ccccc1)C(=O)Nc1c(C)cccc1OCCCN1CCN(c2ccccc2)CC1 [Example 14] | 240 nM | –
CCCCCN(Cc1cc(-n2ccnc2)ccc1OCc1ccccn1)C(=O)Nc1c(C)cccc1OCCCN1CCN(c2ccccc2)CC1 [Example 31] | 138 nM | –

More lines, now with the values ahead:

IC50 (ACAT of HepG2 cells) | IC50 [1] | SMILES
270 nM | – | CCCCCN(Cc1cccc(OCc2ccccn2)c1)C(=O)Nc1c(C)cccc1OCCCN1CCN(c2ccccc2)CC1 [Example 36]
262 nM | – | COc1ccc(-n2ccnc2)cc1CN(C(=O)Nc1c(C)cccc1OCCCN1CCN(c2ccccc2)CC1)C1CCCC1 [Example 72]
76 nM | – | CCCCCN(CCc1ccc(-n2ccnc2)c(OC)c1)C(=O)Nc1c(C)cccc1OCCCN1CCN(c2ccccc2)CC1 [Example 46]
124 nM | – | O=C(Nc1c(OCCCN2CCN(c3ccccc3)CC2)ccc2c1CCCC2)N(CCCc1ccccc1)Cc1ccccc1OCc1ccccn1 [Example 67]
631 nM | – | CCCN(Cc1ccccc1OCc1ccncc1)C(=O)Nc1c(OCCCN2CCN(c3ccccc3)CC2)ccc2c1CCCC2 [Example 70]
81 nM | – | CCCCCN(Cc1cc(-n2cccn2)ccc1OC)C(=O)Nc1c(C)cccc1OCCCN1CCN(c2ccccc2)CC1 [Example 47]
45 nM | – | CCCCCN(Cc1cc(-n2cncn2)ccc1OC)C(=O)Nc1c(C)cccc1OCCCN1CCN(c2ccccc2)CC1 [Example 49]
400 nM | – | CCCCCN(Cc1ccc(OCc2ccccn2)c(OC)c1)C(=O)Nc1c(C)cccc1OCCCN1CCN(c2ccccc2)CC1 [Example 44]
289 nM | – | CCCN(Cc1ccccc1OCc1cccnc1)C(=O)Nc1c(OCCCN2CCN(c3ccccc3)CC2)ccc2c1CCCC2 [Example 69]
635 nM | – | CN(Cc1ccccc1OCc1ccccn1)C(=O)Nc1c(OCCCN2CCN(c3ccccc3)CC2)ccc2c1CCCC2 [Example 71]
220 nM | – | CCCCCN(Cc1cc(OC)ccc1-n1ccnc1)C(=O)Nc1c(C)cccc1OCCCN1CCN(c2ccccc2)CC1 [Example 57]
282 nM | – | CCCCCN(Cc1ccc(-n2ccnc2)cc1)C(=O)Nc1c(C)cccc1OCCCN1CCN(c2ccccc2)CC1 [Example 38]
458 nM | – | COc1ccc(-n2ccnc2)cc1CN(CC(C)C)C(=O)Nc1c(C)cccc1OCCCN1CCN(c2ccccc2)CC1 [Example 73]
386 nM | – | COc1ccc(-n2ccnc2)cc1CN(C(=O)Nc1c(C)cccc1OCCCN1CCN(c2ccccc2)CC1)C(C)C [Example 74]
187 nM | – | CCCN(Cc1ccccc1OCc1ccccn1)C(=O)Nc1c(OCCCN2CCN(c3ccccc3)CC2)ccc2c1CCCC2 [Example 68]
483 nM | – | CCCCCN(Cc1cc(-n2cccc2)ccc1OC)C(=O)Nc1c(C)cccc1OCCCN1CCN(c2ccccc2)CC1 [Example 55]
584 nM | 1050 nM | CCCCCN(Cc1ccc(OC)c(-n2ccnc2)c1)C(=O)Nc1c(C)cccc1OCCCN1CCN(c2ccccc2)CC1 [Example 58]
320 nM | – | CCCCCN(Cc1ccc(OC)cc1OCc1ccccn1)C(=O)Nc1c(C)cccc1OCCCN1CCN(c2ccccc2)CC1 [Example 40]
606 nM | – | CCCCCN(CCc1cc(-n2ccnc2)cc2c1OCO2)C(=O)Nc1c(C)cccc1OCCCN1CCN(c2ccccc2)CC1 [Example 53]
54 nM | – | CCCCCN(CCc1cc(-n2ccnc2)ccc1OC)C(=O)Nc1c(C)cccc1OCCCN1CCN(c2ccccc2)CC1 [Example 56]
220 nM | – | CCCCCN(Cc1cccc(-n2ccnc2)c1)C(=O)Nc1c(C)cccc1OCCCN1CCN(c2ccccc2)CC1 [Example 37]
